# From US8754079B2, “Cycloalkyl containing thienopyrimidines for pharmaceutical compositions” (Boehringer Ingelheim International GmbH, priority 2010, dated 2014)
# Target: T1, MNK2 (Homo sapiens, UniProt Q9HBH9)
# T1 construct: the open reading frames of human Mnk1 and Mnk2a were amplified from cDNA; made in house; host or cells: E. coli BL21
# Assay: Mnk2a in vitro kinase assay (indirect fluorescence polarization)
# Type: biochemical
# Conditions: pre-activated GST-Mnk2a 2.5 nM, 20 μM ATP, 30 μM substrate peptide
# Method: Inhibitory potency of compounds against Mnk1, Mnk2a and other kinases was assessed with assays based on a format known to those skilled in the art as the indirect (competitive) fluorescence polarization. The assay detection system comprises a small fluorophore-labeled phospho-peptide (termed ligand) bound to a phospho-specific antibody. The product generated by the kinase reaction competes with the ligand for antibody binding. Based on the larger molecular volume of the bound ligand, which results in a lower rotation rate in solution, its emitted light has a higher degree of polarization than the one from the free ligand.
# Example 2a. Mnk1 and Mnk2a in vitro kinase assay
# As a source of enzyme, human Mnk1 and human Mnk2a were expressed as GST fusion proteins in E. coli, purified to >80% homogeneity by glutathione affinity chromatography and activated in vitro with pre-activated ERK2. In brief, the open reading frames of human Mnk1 and Mnk2a were amplified from cDNA using the forward/reverse primer pairs
# (utilized restriction sites underlined), respectively, and cloned into the BamHI and SalI sites of the vector pGEX-4T1 (Amersham, Sweden, cat. no. 27-4580-01). These constructs allow prokaryotic expression of Mnk1 or Mnk2a as fusion protein with a N-terminal glutathione S-transferase (GST) tag, referred to as GST-Mnk1 or GSTMnk2a. The following expression and purification procedure was identical for GSTMnk1 and GST-Mnk2a, referring in general to GST-Mnk, when not distinguishing between the two isoforms. Expression of GST-Mnk was in E. coli BL21 (Merck Biosciences, Germany, cat. no. 69449). Cells were grown in LB-Bouillon (Merck, Germany, cat. no. 1.10285) supplemented with 100 μg/ml ampicillin (Sigma, Germany, cat. no. A9518) at 37° C. When the culture had reached a density corresponding to an A600 of 0.8, an equal volume of ice cold LB/ampicillin was added, the culture transferred to 25° C. and induced for 4 h with 1 mM isopropyl thiogalactoside (IPTG, Roth, Germany, cat. no. 2316.4). Cells harvested by centrifugation were resuspended in 10 ml lysis buffer (50 mM tris(hydroxymethyl)aminomethane hydrochloride (Tris/HCl, Sigma, Germany, cat. no. T5941) pH 7.5, 300 mM sodium chloride (NaCl, Sigma, Germany, cat. no. S7653), 5% (w/v) glycerol (Sigma, Germany, cat. no. G5516), 3 mM DTT dithiotreitol (DTT, Sigma, Germany, cat. no. D9779)) per gram wet weight cell pellet. Lysates were prepared by disruption of cells with a sonifier and subsequent clearing by centrifugation at 38000 g for 45 min at 4° C.
# The lysate was applied to a GSTPrep FF 16/10 column (Amersham, Sweden, cat. no. 17-5234-01) equilibrated with lysis buffer. Removal of unbound material was with 3 column volumes (CV) lysis buffer. Elution was with 2 CV of elution buffer (50 mM Tris/HCl pH 7.5, 300 mM NaCl, 5% (w/v) glycerol, 20 mM glutathione (Sigma, Germany, cat. no. G4251)). Peak fractions were pooled and the protein transferred into storage buffer (50 mM Tris/HCl pH 7.5, 200 mM NaCl, 0.1 mM ethylene glycolbis(2-aminoethylether)-N,N,N′,N′-tetraacetic acid (EGTA, Aldrich, Germany, cat. no. 23, 453-2), 1 mM DTT, 10% (w/v) glycerol, 0.5 M sucrose (Sigma, Germany, cat. no. S0389) by gel filtration on a PD10 desalting column (Amersham, Sweden, cat. no. 17-0851-01). Aliquots were shock frozen in liquid nitrogen and stored at −80° C.
# Activation of Mnk1 and Mnk2a was at a concentration of 2.5 μM of either purified GST-Mnk1 or GST-Mnk2a by incubation with 150 nM pre-activated NHis-ERK2 (see ERK2 assay for preparation) and 50 μM adenosine triphosphate (ATP, Sigma, cat. no. A2699) in a buffer comprising 20 mM N-(2-hydroxyethyl)piperazine-N′-(2-ethanesulfonic acid) (HEPES, Fluka, Germany, cat. no 54459)/potassium hydroxide (KOH, Roth, Germany, cat. no 6751.1) pH 7.4, 10 mM magnesium chloride (MgCl2, Sigma, Germany, cat. no. M2670), 0.25 mM DTT, 0.05% (w/v) polyoxyethylene 20 stearylether (Brij 78, Sigma, Germany, cat. no. P4019) (HMDB buffer) for 45 min at 30° C. […]
# T1 sequence (Q9HBH9 whole entry): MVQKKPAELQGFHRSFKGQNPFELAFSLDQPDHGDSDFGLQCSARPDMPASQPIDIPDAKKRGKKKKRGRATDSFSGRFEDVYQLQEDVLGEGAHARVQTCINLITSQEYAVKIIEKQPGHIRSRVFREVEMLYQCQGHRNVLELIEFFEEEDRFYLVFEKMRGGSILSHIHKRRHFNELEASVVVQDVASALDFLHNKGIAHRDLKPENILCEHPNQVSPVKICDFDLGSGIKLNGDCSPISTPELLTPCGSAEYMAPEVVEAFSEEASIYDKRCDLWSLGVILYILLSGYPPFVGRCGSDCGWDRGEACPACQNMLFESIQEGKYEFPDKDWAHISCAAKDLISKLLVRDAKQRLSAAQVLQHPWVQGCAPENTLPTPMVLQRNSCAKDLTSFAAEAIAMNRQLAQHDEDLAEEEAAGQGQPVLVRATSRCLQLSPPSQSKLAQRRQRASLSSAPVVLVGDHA
row,SMILES,IC50 [nM]
1,"CO[C@H]1CCC[C@@H](Oc2cc(F)ccc2Nc2ncnc3sc(C(N)=O)c(C)c23)C1 (racemic) [Example 89, Racemic 4-[4-Fluoro-2-((cis)-3-methoxy-cyclohexyloxy)-phenylamino]-5-methyl-thieno[2,3-d]pyrimidine-6-carboxylic acid amide]",8
2,CO[C@H]1CCC[C@@H](Oc2cc(F)ccc2Nc2ncnc3sc(C(=O)NCC#CCN)c(C)c23)C1 (racemic) [Example 91],16
3,CO[C@H]1CCC[C@@H](Oc2cc(F)ccc2Nc2ncnc3sc(C(=O)NCCCCO)c(C)c23)C1 (racemic) [Example 92],36
4,CO[C@H]1CCC[C@@H](Oc2cc(F)ccc2Nc2ncnc3sc(C(=O)NCc4cnco4)c(C)c23)C1 (racemic) [Example 93],16
5,CNC(=O)CNC(=O)c1sc2ncnc(Nc3ccc(F)cc3O[C@@H]3CCC[C@H](OC)C3)c2c1C (racemic) [Example 95],28
6,CO[C@H]1CCC[C@@H](Oc2cc(F)ccc2Nc2ncnc3sc(C(=O)NCCCN4CCOCC4)c(C)c23)C1 (racemic) [Example 97],24
7,CO[C@H]1CCC[C@@H](Oc2cc(F)ccc2Nc2ncnc3sc(C(=O)N[C@H]4CC[C@H](O)CC4)c(C)c23)C1 (racemic) [Example 100],34
8,CO[C@H]1CCC[C@@H](Oc2cc(F)ccc2Nc2ncnc3sc(C(=O)NCCO)c(C)c23)C1 (racemic) [Example 101],21
9,CO[C@H]1CCC[C@@H](Oc2cc(F)ccc2Nc2ncnc3sc(C(=O)NCCN4CCCCC4)c(C)c23)C1 (racemic) [Example 103],50
10,CO[C@H]1CCC[C@@H](Oc2cc(F)ccc2Nc2ncnc3sc(C(=O)NCCCO)c(C)c23)C1 (racemic) [Example 105],24
11,CO[C@H]1CCC[C@@H](Oc2cc(F)ccc2Nc2ncnc3sc(C(=O)NCCCN4CCCC4)c(C)c23)C1 (racemic) [Example 106],22
12,CCNC(=O)c1sc2ncnc(Nc3ccc(F)cc3O[C@@H]3CCC[C@H](OC)C3)c2c1C (racemic) [Example 109],24
13,"COC(=O)c1sc2ncnc(Nc3cccnc3O[C@@H]3CCC[C@H](OC)C3)c2c1C (racemic) [Example 110.1, Racemic 4-[2-((cis)-3-Methoxy-cyclohexyloxy)-pyridin-3-ylamino]-5-methyl-thieno[2,3-d]pyrimidine-6-carboxylic acid methylester]",9
14,CO[C@H]1CCC[C@@H](Oc2ncccc2Nc2ncnc3sc(C(=O)NCC#CCN)c(C)c23)C1 (racemic) [Example 112],13
15,CO[C@H]1CCC[C@@H](Oc2ncccc2Nc2ncnc3sc(C(=O)NCCCCO)c(C)c23)C1 (racemic) [Example 113],23
16,CO[C@H]1CCC[C@@H](Oc2ncccc2Nc2ncnc3sc(C(=O)NCc4cnco4)c(C)c23)C1 (racemic) [Example 114],19
17,CNC(=O)CNC(=O)c1sc2ncnc(Nc3cccnc3O[C@@H]3CCC[C@H](OC)C3)c2c1C (racemic) [Example 116],33
18,CO[C@H]1CCC[C@@H](Oc2ncccc2Nc2ncnc3sc(C(=O)NCCCN4CCOCC4)c(C)c23)C1 (racemic) [Example 118],22
19,CO[C@H]1CCC[C@@H](Oc2ncccc2Nc2ncnc3sc(C(=O)N[C@H]4CC[C@H](O)CC4)c(C)c23)C1 (racemic) [Example 121],41
20,CO[C@H]1CCC[C@@H](Oc2ncccc2Nc2ncnc3sc(C(=O)NCCO)c(C)c23)C1 (racemic) [Example 122],18

row,SMILES,IC50 [nM]
1,CO[C@H]1CCC[C@@H](Oc2ncccc2Nc2ncnc3sc(C(=O)NCCN4CCCCC4)c(C)c23)C1 (racemic) [Example 124],36
2,CO[C@H]1CCC[C@@H](Oc2ncccc2Nc2ncnc3sc(C(=O)NCCCN4CCCC4)c(C)c23)C1 (racemic) [Example 127],16
3,CO[C@H]1CCC[C@@H](Oc2ncccc2Nc2ncnc3sc(C(=O)NCc4cn(C)cn4)c(C)c23)C1 (racemic) [Example 128],19
4,CCNC(=O)c1sc2ncnc(Nc3cccnc3O[C@@H]3CCC[C@H](OC)C3)c2c1C (racemic) [Example 130],24
5,"CO[C@@H]1CCC[C@@H](Oc2ncccc2Nc2ncnc3sc(C(N)=O)c(C)c23)C1 (racemic) [Example 131, Racemic 4-[2-((trans)-3-Methoxy-cyclohexyloxy)-pyridin-3-ylamino]-5-methyl-thieno[2,3-d]pyrimidine-6-carboxylic acid amide]",18
6,CO[C@@H]1CCC[C@@H](Oc2ncccc2Nc2ncnc3sc(C(=O)NCC#CCN)c(C)c23)C1 (racemic) [Example 133],53
7,CO[C@@H]1CCC[C@@H](Oc2ncccc2Nc2ncnc3sc(C(=O)NCCCCO)c(C)c23)C1 (racemic) [Example 134],86
8,CO[C@@H]1CCC[C@@H](Oc2ncccc2Nc2ncnc3sc(C(=O)NCc4cnco4)c(C)c23)C1 (racemic) [Example 135],65
9,CO[C@@H]1CCC[C@@H](Oc2ncccc2Nc2ncnc3sc(C(=O)NCC#N)c(C)c23)C1 (racemic) [Example 136],44
10,CNC(=O)CNC(=O)c1sc2ncnc(Nc3cccnc3O[C@@H]3CCC[C@@H](OC)C3)c2c1C (racemic) [Example 137],105
11,CO[C@@H]1CCC[C@@H](Oc2ncccc2Nc2ncnc3sc(C(=O)NCC#CCN(C)C)c(C)c23)C1 (racemic) [Example 138],48
12,CO[C@@H]1CCC[C@@H](Oc2ncccc2Nc2ncnc3sc(C(=O)NCCCN4CCOCC4)c(C)c23)C1 (racemic) [Example 139],84
13,CO[C@@H]1CCC[C@@H](Oc2ncccc2Nc2ncnc3sc(C(=O)N[C@H]4CC[C@H](O)CC4)c(C)c23)C1 (racemic) [Example 142],125
14,CO[C@@H]1CCC[C@@H](Oc2ncccc2Nc2ncnc3sc(C(=O)NC4CCN(C)CC4)c(C)c23)C1 (racemic) [Example 144],89
15,CO[C@@H]1CCC[C@@H](Oc2ncccc2Nc2ncnc3sc(C(=O)NCCN4CCCCC4)c(C)c23)C1 (racemic) [Example 145],68
16,CO[C@@H]1CCC[C@@H](Oc2ncccc2Nc2ncnc3sc(C(=O)NCCCO)c(C)c23)C1 (racemic) [Example 147],83
17,CO[C@@H]1CCC[C@@H](Oc2ncccc2Nc2ncnc3sc(C(=O)NCCCN4CCCC4)c(C)c23)C1 (racemic) [Example 148],49
18,Cc1c(C(N)=O)sc2ncnc(Nc3ccc(F)cc3O[C@@H]3CCC[C@H]4OC(C)(C)O[C@@H]34)c12 (relative stereo) [Example 1],13
19,Cc1c(C(N)=O)sc2ncnc(Nc3ccc(F)cc3O[C@@H]3CCC[C@@H](O)[C@H]3O)c12 (relative stereo) [Example 2],21
20,"CN[C@H]1CCC[C@@H](Oc2cc(F)ccc2Nc2ncnc3sc(C(N)=O)c(C)c23)C1 (relative stereo) [Example 17, 4-(4-Fluoro-2-(cis-3-(N-methylamino)cyclohexyloxy)phenylamino)-5-methylthieno[2,3-d]pyrimidine-6-carboxamide]",28
